# Like-named read-outs stand apart in the source and are kept apart here.
# Molecular target: recombinant eIF4E (Homo sapiens (Human), UniProt P06730)
# Test: Fluorescence polarization competition assay for eIF4E binding potency
# Summary of the method: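 Competition of test compound against 20 nM EDA-m^7GDP-ATTO-550 for 75 nM recombinant eIF4E, pre-incubated 5 min, in 20 mM Tris pH 7.5, 100 mM NaCl, 1 mM DTT, 0.02% Tween-20, 1% DMSO. Equilibrated 30 min at room temperature, dark; fluorescence polarization read. IC50 from 8-point, 3-fold dilution series.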
# [1] = fluorescence polarization competition, 75 nM recombinant eIF4E, 20 nM EDA-m7GDP-ATTO-550, IC50 class, read-out: elF4E FP
# [2] = inhibition of eIF4E/EDA-m7GDP-ATTO-550 binding by 50%, Table 4B calculated values, read-out: IC50
# recombinant eIF4E, sequence (P06730 whole entry): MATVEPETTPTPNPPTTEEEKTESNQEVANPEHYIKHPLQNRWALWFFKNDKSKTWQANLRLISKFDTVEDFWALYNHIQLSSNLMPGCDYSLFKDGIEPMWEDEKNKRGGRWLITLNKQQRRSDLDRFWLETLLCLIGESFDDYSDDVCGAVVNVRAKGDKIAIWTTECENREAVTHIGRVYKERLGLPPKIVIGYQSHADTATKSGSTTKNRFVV
SMILES,IC50 [1] [nM],IC50 [2] [nM]
Cc1cc(-c2c(CF)cc3nc(C)n(CCOc4ccc(Cl)cc4-c4cc(C)nc5c(C(=O)O)csc45)c(=O)c3c2C#N)cc(C)n1 [compound 933],50 to 1000,122
Cc1cc(-c2cc(Cl)ccc2OCCn2c(C)nc3cc(C(F)(F)F)c(-c4scnc4C)nc3c2=O)c2scc(C(=O)O)c2n1 [compound 939],< 50,12.1
Cc1nc2cnc(C3CC3)c(C#N)c2c(=O)n1CCOc1ccc(Cl)cc1Sc1cccc(C(=O)O)n1 [compound 940],50 to 1000,470
Cc1cc(-c2cc(Cl)ccc2OCCn2c(C)nc3cc(Cl)c(N(C)C(C)(C)C)c(C#N)c3c2=O)c2scc(C(=O)O)c2n1 [compound 955],< 50,10.2
Cc1cc(-c2cc(Cl)ccc2OCCn2c(C)nc3cc(Cl)c(NC(C)(C)C)c(C#N)c3c2=O)c2scc(C(=O)O)c2n1 [compound 956],< 50,16.5
Cc1cc(-c2cc(Cl)ccc2OCCn2c(C)nc3cc(Cl)c(N(C)C4CC4)c(C#N)c3c2=O)c2scc(C(=O)O)c2n1 [compound 957],< 50,5.81
Cc1cc(-c2cc(Cl)ccc2OCCn2c(C)nc3cc(Cl)c(NC4CC4)c(C#N)c3c2=O)c2scc(C(=O)O)c2n1 [compound 958],< 50,13.5
Cc1ccc(N(C)c2c(Cl)cc3nc(C)n(CCOc4ccc(Cl)cc4-c4cc(C)nc5c(C(=O)O)csc45)c(=O)c3c2C#N)cn1 [compound 959],< 50,14.8
Cc1ccc(Nc2c(Cl)cc3nc(C)n(CCOc4ccc(Cl)cc4-c4cc(C)nc5c(C(=O)O)csc45)c(=O)c3c2C#N)cn1 [compound 960],< 50,39.6
Cc1cc(-c2cc(Cl)ccc2OCCn2c(C)nc3cc(Cl)c(N(C)c4cncc(F)c4)c(C#N)c3c2=O)c2scc(C(=O)O)c2n1 [compound 961],< 50,21.1
Cc1cc(-c2cc(Cl)ccc2OCCn2c(C)nc3cc(Cl)c(Nc4cncc(F)c4)c(C#N)c3c2=O)c2scc(C(=O)O)c2n1 [compound 962],< 50,3.15
Cc1cc(-c2c(C(F)(F)F)cc3nc(C)n(CCOc4ccc(Cl)cc4-c4cc(C)nc5c(C(=O)O)csc45)c(=O)c3c2C#N)nc(C)n1 [compound 963],< 50,7.84
Cc1cc(-c2cc(Cl)ccc2OCCn2c(C)nc3cc(C(F)(F)F)c(-c4nc(C)ncc4F)c(C#N)c3c2=O)c2scc(C(=O)O)c2n1 [compound 964],< 50,3.32
Cc1cc(C)nc(-c2c(C(F)(F)F)cc3nc(C)n(CCOc4ccc(Cl)cc4-c4cc(C)nc5c(C(=O)O)csc45)c(=O)c3c2C#N)n1 [compound 965],50 to 1000,118
Cc1cc(-c2cc(Cl)ccc2OCCn2c(C)nc3cc(C(F)(F)F)c(-c4ncc(F)cn4)c(C#N)c3c2=O)c2scc(C(=O)O)c2n1 [compound 966],< 50,3.58
Cc1ccc(-c2c(C(F)(F)F)cc3nc(C)n(CCOc4ccc(Cl)cc4-c4cc(C)nc5c(C(=O)O)csc45)c(=O)c3c2C#N)nn1 [compound 967],< 50,12.2
Cc1cnc(C)c(-c2c(C(F)(F)F)cc3nc(C)n(CCOc4ccc(Cl)cc4-c4cc(C)nc5c(C(=O)O)csc45)c(=O)c3c2C#N)n1 [compound 968],< 50,8.95
Cc1cc(-c2cc(Cl)ccc2OCCn2c(C)nc3cc(C(F)(F)F)c(-c4cnc(C)c(C)n4)c(C#N)c3c2=O)c2scc(C(=O)O)c2n1 [compound 969],< 50,5.56
Cc1nc2cnc(C3CC3)c(C#N)c2c(=O)n1CCOc1ccc(Cl)cc1Cc1cc(C(=O)O)cs1 [compound 970],50 to 1000,166
Cc1cc(-c2cc(Cl)ccc2OCCn2c(C)nc3cnc(N(C)CC(F)(F)F)c(C#N)c3c2=O)c2scc(C(=O)O)c2n1 [compound 971],50 to 1000,57.8
Cc1cc(-c2cc(Cl)ccc2OCCn2c(C)nc3cnc(NCC(F)(F)F)c(C#N)c3c2=O)c2scc(C(=O)O)c2n1 [compound 972],< 50,9.77
Cc1cc(-c2cc(Cl)ccc2OCCn2c(C)nc3cnc(N(C)CC(F)F)c(C#N)c3c2=O)c2scc(C(=O)O)c2n1 [compound 973],50 to 1000,85
Cc1cc(-c2cc(Cl)ccc2OCCn2c(C)nc3cnc(NCC(F)F)c(C#N)c3c2=O)c2scc(C(=O)O)c2n1 [compound 974],< 50,23.6
CON(C)c1ncc2nc(C)n(CCOc3ccc(Cl)cc3-c3cc(C)nc4c(C(=O)O)csc34)c(=O)c2c1C#N [compound 976],< 50,19
Cc1cc(-c2cc(Cl)ccc2OCCn2c(C)nc3cnc(N4CCCC4=O)c(C#N)c3c2=O)c2scc(C(=O)O)c2n1 [compound 977],< 50,14.4
Cc1cc(-c2cc(Cl)ccc2OCCn2c(C)nc3cnc(N(C)N(C)C)c(C#N)c3c2=O)c2scc(C(=O)O)c2n1 [compound 978],< 50,20.7
Cc1cc(-c2cc(Cl)ccc2OCCn2c(C)nc3cnc(NN(C)C)c(C#N)c3c2=O)c2scc(C(=O)O)c2n1 [compound 979],< 50,9.48
COC(=O)c1csc2c(-c3cc(Cl)ccc3C#CCn3c(C)nc4cnc(N(C)C5CCN(CC(C)(F)F)CC5)c(C#N)c4c3=O)ccnc12 [compound 980],< 50,15.6
Cc1cc(-c2cc(Cl)ccc2OCCn2c(C)nc3cnc(N4CCc5ccccc54)c(C#N)c3c2=O)c2scc(C(=O)O)c2n1 [compound 982],< 50,20.4
Cc1cc(-c2cc(Cl)ccc2OCCn2c(C)nc3cnc(-n4ccc5ccccc54)c(C#N)c3c2=O)c2scc(C(=O)O)c2n1 [compound 983],< 50,18.9

# Continued, values first:
IC50 [1] [nM],IC50 [2] [nM],SMILES
< 50,22.5,Cc1cc(-c2cc(Cl)ccc2OCCn2c(C)nc3cnc(C4CCCC4(F)F)c(C#N)c3c2=O)c2scc(C(=O)O)c2n1 (stereo not drawn) [compound 929]
< 50,6.88,Cc1cc(-c2cc(Cl)ccc2OCCn2c(C)nc3cnc(C4CCC(F)(F)C4)c(C#N)c3c2=O)c2scc(C(=O)O)c2n1 (stereo not drawn) [compound 930]
< 50,13.7,Cc1cc(-c2cc(Cl)ccc2OCCn2c(C)nc3cnc(C4CCCC(F)(F)C4)c(C#N)c3c2=O)c2scc(C(=O)O)c2n1 (stereo not drawn) [compound 931]
< 50,17.8,Cc1cc(-c2c(F)cc3nc(C)n(CCOc4ccc(Cl)cc4-c4cc(C)nc5c(C(=O)O)csc45)c(=O)c3c2C#N)cc(C)n1 [compound 932]
< 50,13.6,Cc1cc(-c2c(C(F)(F)F)cc3nc(C)n(CCOc4ccc(Cl)cc4-c4cc(C)nc5c(C(=O)O)csc45)c(=O)c3c2C#N)cc(CF)n1 [compound 934]
< 50,19.6,Cc1cc(-c2cc(Cl)ccc2OCCn2c(C)nc3cc(F)c(-c4ccccc4)c(C#N)c3c2=O)c2scc(C(=O)O)c2n1 [compound 935]
< 50,2.44,Cc1cc(-c2cc(Cl)ccc2OCCn2c(C)nc3cc(C(F)(F)F)c(C(C)(C)O)nc3c2=O)c2scc(C(=O)O)c2n1 [compound 938]
< 50,20,Cc1cc(-c2cc(Cl)ccc2OCCn2c(C)nc3cnc(-c4ccccc4F)c(C#N)c3c2=O)c2scc(C(=O)O)c2n1 [compound 941]
< 50,6.93,Cc1cc(-c2cc(Cl)ccc2OCCn2c(C)nc3cnc(-c4cccc(F)c4)c(C#N)c3c2=O)c2scc(C(=O)O)c2n1 [compound 942]
< 50,14.7,Cc1cc(-c2cc(Cl)ccc2OCCn2c(C)nc3cnc(-c4ccc(F)cc4)c(C#N)c3c2=O)c2scc(C(=O)O)c2n1 [compound 943]
< 50,46.2,Cc1cc(-c2cc(Cl)ccc2OCCn2c(C)nc3cnc(-c4ccccc4C)c(C#N)c3c2=O)c2scc(C(=O)O)c2n1 [compound 944]
< 50,38.9,Cc1cccc(-c2ncc3nc(C)n(CCOc4ccc(Cl)cc4-c4cc(C)nc5c(C(=O)O)csc45)c(=O)c3c2C#N)c1 [compound 945]
< 50,27.7,Cc1ccc(-c2ncc3nc(C)n(CCOc4ccc(Cl)cc4-c4cc(C)nc5c(C(=O)O)csc45)c(=O)c3c2C#N)cc1 [compound 946]
< 50,23.7,Cc1cc(-c2cc(Cl)ccc2OCCn2c(C)nc3cnc(-c4ccccc4Cl)c(C#N)c3c2=O)c2scc(C(=O)O)c2n1 [compound 947]
< 50,18.3,Cc1cc(-c2cc(Cl)ccc2OCCn2c(C)nc3cnc(-c4cccc(Cl)c4)c(C#N)c3c2=O)c2scc(C(=O)O)c2n1 [compound 948]
< 50,37.3,Cc1cc(-c2cc(Cl)ccc2OCCn2c(C)nc3cnc(-c4ccc(Cl)cc4)c(C#N)c3c2=O)c2scc(C(=O)O)c2n1 [compound 949]
< 50,17.2,Cc1cc(-c2cc(Cl)ccc2OCCn2c(C)nc3cnc(-c4ccccc4C(F)(F)F)c(C#N)c3c2=O)c2scc(C(=O)O)c2n1 [compound 950]
< 50,43.6,Cc1cc(-c2cc(Cl)ccc2OCCn2c(C)nc3cnc(-c4cccc(C(F)(F)F)c4)c(C#N)c3c2=O)c2scc(C(=O)O)c2n1 [compound 951]
< 50,45,Cc1cc(-c2cc(Cl)ccc2OCCn2c(C)nc3cnc(-c4ccc(C(F)(F)F)cc4)c(C#N)c3c2=O)c2scc(C(=O)O)c2n1 [compound 952]
< 50,13.4,Cc1cc(-c2cc(Cl)ccc2OCCn2c(C)nc3cnc(-c4cc(Cl)ccc4C)c(C#N)c3c2=O)c2scc(C(=O)O)c2n1 [compound 953]
< 50,8.29,Cc1cc(-c2cc(Cl)ccc2OCCn2c(C)nc3cnc(-c4cc(Cl)ccc4Cl)c(C#N)c3c2=O)c2scc(C(=O)O)c2n1 [compound 954]
